Test results taken from patent US20260137706A1, “METHODS OF TREATING INFLAMMATORY DISEASES” (INTERLINE THERAPEUTICS, INC., priority 2023, published 2026).

Assays:
[1] = tested on: NF-κB pathway (SEAP) in THP1-Dual cells; test: THP-1 Dual cell SEAP assay (L18-MDP stimulated); type: cell-based; details: Homo sapiens, THP1-Dual, read-out: NF-κB THP1 IC50 bin
Description: THP1-Dual™ cells (InvivoGen Cat #thpd-nfis) allow simultaneous assessment of the NF-κB pathway, by monitoring the activity of secreted embryonic alkaline phosphatase (SEAP) as well as the IRF pathway, by assessing the activity of a secreted luciferase (Lucia). Cells were cultured according to manufacturers' recommendations. For the assay, cell concentration was adjusted to 7.14×10^5 cells/mL in assay media (RPMI 1640, 2 mM L-Glutamine, 25 mM HEPES, 10% fetal bovine serum (heat-inactivated for 30 min at 56° C.), Pen-Strep (100 U/mL)) and 35 µL of cell suspension (˜25,000 cells) per well were added to a flat bottom 384-well plate (white opaque). Plate was centrifuged at 300 g for 2 min, compounds were added in serial dilution series according to the plate layout (volumes ˜500 nL-0.0152 nL) and plate was incubated at 37° C. in 5% CO2 for 30 min. Using assay media, a L18-MDP stock solution, that results in a final concentration of 10 ng/mL L18-MDP in each well when adding 15 μL to each well, was prepared. 15 μL of L18-MDP stock solution was added to each well, while 15 μL of assay media was added to the negative control wells. Plates were subsequently incubated at 37° C. in 5% CO2 overnight (20-24 h).
For the SEAP assay: without disturbing the cells at the bottom of the well, 15 μL supernatant was transferred to a clear 384-well flat bottom plate and 35 μL QUANTI-Blue Solution per well was added. Following a 2 h incubation at 37° C., the optical density (OD) was measured at 620-655 nm using a microplate reader (PheraStar FS microplate reader with protocol for OD 620-655 nm).
Values of media-only wells were subtracted and % inhibition for each compound concentration relative to the DMSO/L18-MDP-treated controls was calculated. Inhibition values+/−SD were fitted by non-linear regression using Prism software (GraphPad PRISM Software) to calculate IC50 values.

[2] = target: T1, binding of His-XIAP(BIR2)-avi fusion protein to GST-RIPK2 fusion protein (RIPK2/XIAP) (Homo sapiens, UniProt O43353); test: RIPK2-XIAP binding competition PPI assay (TR-FRET); details: RIPK2/XIAP binding competition PPI assay; for Emax: Amax, read-out: PPI Amax bin; for IC50: read-out: PPI IC50 bin
T1 construct: made in house; host or cells: baculovirus infected Sf9 cells
T1 sequence (O43353 1-310 limits assumed): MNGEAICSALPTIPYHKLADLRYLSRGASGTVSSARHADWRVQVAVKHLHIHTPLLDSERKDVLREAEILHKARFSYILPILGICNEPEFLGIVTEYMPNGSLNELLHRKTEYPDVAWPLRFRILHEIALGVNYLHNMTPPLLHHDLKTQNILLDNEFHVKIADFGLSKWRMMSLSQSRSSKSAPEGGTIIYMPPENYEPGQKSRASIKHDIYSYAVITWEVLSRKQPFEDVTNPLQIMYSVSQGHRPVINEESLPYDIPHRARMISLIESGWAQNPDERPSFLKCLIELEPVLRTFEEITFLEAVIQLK
Description: The ability of selected compounds of Formula (I) to inhibit the binding of an His-XIAP(BIR2)-avi fusion protein to a GST-RIPK2 fusion protein was quantified employing the TR-FRET-based competition assay as described in the following paragraphs.
Recombinant fusion protein of N-terminal Glutathione-S-Transferase (GST) and a fragment of human RIPK2 (amino acids 1-310 of accession number 043353), expressed in baculovirus infected Sf9 cells, purified via glutathione affinity chromatography, was used as GST-RIPK2 fusion protein. Recombinant fusion protein of N-terminal 6×Histidine (His), a fragment of human XIAP (amino acids 152-231 of accession number P98170), and C-terminal avi tag, expressed in baculovirus infected Sf9 cells, purified via Nickel NTA affinity chromatography, was used as the His-XIAP(BIR2)-avi fusion protein.
For the assay, a working solution of 1 nM GST-RIPK2, 25 nM His-XIAP(BIR2)-avi, 6 nM Anti-His-XL665 […] (Revvity Catalogue No. 61HISXLB), and 0.5 nM Anti-GST-Tb (Revvity Catalogue No. 61GSTTLB) in 25 mM Tris-HCl 7.5, 0.5 mM ethylene glycol-bis(2-aminoethylether)-N,N,N′,N′-tetraacetic acid (EGTA), 10 mM magnesium chloride (MgCl2), 2.5 mM dithiothreitol (DTT), 0.01% (w/v) bovine serum albumin (BSA), 0.005% (w/v) Pluronic F-127 (Sigma), 0.5 mM sodium ortho-vanadate, 5 mM β-Glycerophosphate disodium salt hydrate (BGP) was prepared. 50 nL of a 100-fold concentrated solution of each test compound in DMSO was dispensed via acoustic dispensing into a white low volume 384-well microtiter plate (Perkin Elmer Catalogue No. 6008280). Subsequently, 5 μL of the assay working solution were added.
The resulting mixture was incubated 120 min at 23° C. Subsequently, the amount of complex formed by the GST-RIPK2, XIAP(BIR2)-avi, Anti-His-XL665, and Anti-GST-Tb was evaluated by measurement of the resonance energy transfer from the Tb-cryptate to the XL665. Therefore, the fluorescence emissions at 520 nm and 665 nm after excitation at 337 nm were measured in a TR-FRET reader, e.g. a Pherastar FS (BMG Labtechnologies, Offenburg, Germany) or an Envision (PerkinElmer). The ratio of the emissions at 665 nm and at 520 nm was taken as the measure of the amount of the complex. The data were normalized (assay reaction without inhibitor=0% activity, 50 nM of GSK583=−100% activity).
For the RIPK2/XIAP binding competition PPI assay Amax values, “A” denotes an Amax of ≥80%; “B” denotes an Amax of 80%>B≥55; “C” denotes an Amax of 55%>C>30; and “D” denotes an Amax of ≤30%.

COc1cc2ncc(-c3cc(NS(=O)(=O)c4cnn(C)c4)c(OC)c(OC)c3)n2cc1N1CC2(COC2)CC1=O [Example 271, N-(2,3-dimethoxy-5-(7-methoxy-6-(7-oxo-2-oxa-6-azaspiro[3.4]octan-6-yl)imidazo[1,2-a]pyridin-3-yl)phenyl)-1-methyl-1H-pyrazole-4-sulfonamide]
IC50 [1]: > 1000 nM
Emax [2]: > 80%
IC50 [2]: 2.5 to 20 nM

CC(C)(C)S(=O)(=O)c1cn2c(-c3cc(F)c(N)nc3F)cnc2cc1NCCO [Example 272, 2-((3-(6-amino-2,5-difluoropyridin-3-yl)-6-(tert-butylsulfonyl)imidazo [1,2-a]pyridin-7-yl)amino)ethan-1-ol]
IC50 [1]: 50 to 250 nM
Emax [2]: > 80%
IC50 [2]: 1 to 2.5 nM

COc1cc2ncc(-c3cc(NS(=O)(=O)c4cnn(C)c4)c(OC)c(OC)c3)n2cc1N1CCCC1=O [Example 273, N-(2,3-dimethoxy-5-(7-methoxy-6-(2-oxopyrrolidin-1-yl)imidazo[1,2-a]pyridin-3-yl)phenyl)-1-methyl-1H-pyrazole-4-sulfonamide]
IC50 [1]: 250 to 1000 nM
Emax [2]: > 80%
IC50 [2]: 1 to 2.5 nM

COc1ccc(-c2cnc3cc(OC)c(S(=O)(=O)C(C)(C)C)cn23)cc1NS(=O)(=O)c1cnn(C)c1 [Example 282, N-(5-(6-(tert-butylsulfonyl)-7-methoxyimidazo[1,2-a]pyridin-3-yl)-2-methoxyphenyl)-1-methyl-1H-pyrazole-4-sulfonamide]
IC50 [1]: < 50 nM
Emax [2]: > 80%
IC50 [2]: < 1 nM

COc1cc2ncc(-c3cc(Cl)c(OC)c(NS(=O)(=O)c4cnn(C)c4)c3)n2cc1S(=O)(=O)C(C)(C)C [Example 283, N-(5-(6-(tert-butylsulfonyl)-7-methoxyimidazo[1,2-a]pyridin-3-yl)-3-chloro-2-methoxyphenyl)-1-methyl-1H-pyrazole-4-sulfonamide]
IC50 [1]: < 50 nM
Emax [2]: > 80%
IC50 [2]: < 1 nM

COc1cc2ncc(-c3cc(F)cc(NS(=O)(=O)c4cnn(C)c4)c3)n2cc1S(=O)(=O)C(C)(C)C [Example 284, N-(3-(6-(tert-butylsulfonyl)-7-methoxyimidazo[1,2-a]pyridin-3-yl)-5-fluorophenyl)-1-methyl-1H-pyrazole-4-sulfonamide]
IC50 [1]: 50 to 250 nM
Emax [2]: > 80%
IC50 [2]: < 1 nM

COc1cc(NS(=O)(=O)c2cnn(C)c2)cc(-c2cnc3cc(OC)c(S(=O)(=O)C(C)(C)C)cn23)c1 [Example 285, N-(3-(6-(tert-butylsulfonyl)-7-methoxyimidazo[1,2-a]pyridin-3-yl)-5-methoxyphenyl)-1-methyl-1H-pyrazole-4-sulfonamide]
IC50 [1]: < 50 nM
Emax [2]: > 80%
IC50 [2]: < 1 nM

COc1cc2ncc(-c3cc(C)c(OC)c(NS(=O)(=O)c4cnn(C)c4)c3)n2cc1S(=O)(=O)C(C)(C)C [Example 286, N-(5-(6-(tert-butylsulfonyl)-7-methoxyimidazo[1,2-a]pyridin-3-yl)-2-methoxy-3-methylphenyl)-1-methyl-1H-pyrazole-4-sulfonamide]
IC50 [1]: 50 to 250 nM
Emax [2]: > 80%
IC50 [2]: < 1 nM

COc1cc2ncc(-c3cc(F)c(OC)c(NS(=O)(=O)c4cnc(C)s4)c3)n2cc1S(=O)(=O)C(C)(C)C [Example 287, N-(5-(6-(tert-butylsulfonyl)-7-methoxyimidazo[1,2-a]pyridin-3-yl)-3-fluoro-2-methoxyphenyl)-2-methylthiazole-5-sulfonamide]
IC50 [1]: 50 to 250 nM
Emax [2]: 55 to 80%
IC50 [2]: < 1 nM

COc1cc2ncc(-c3cc(F)c(OC)c(NS(=O)(=O)c4cc(C)no4)c3)n2cc1S(=O)(=O)C(C)(C)C [Example 288, N-(5-(6-(tert-butylsulfonyl)-7-methoxyimidazo[1,2-a]pyridin-3-yl)-3-fluoro-2-methoxyphenyl)-3-methylisoxazole-5-sulfonamide]
IC50 [1]: > 1000 nM
Emax [2]: < 30%
IC50 [2]: > 20 nM

COc1cc2ncc(-c3cc(F)c(OC)c(NS(=O)(=O)c4cc(C)ns4)c3)n2cc1S(=O)(=O)C(C)(C)C [Example 289, N-(5-(6-(tert-butylsulfonyl)-7-methoxyimidazo[1,2-a]pyridin-3-yl)-3-fluoro-2-methoxyphenyl)-3-methylisothiazole-5-sulfonamide]
IC50 [1]: 50 to 250 nM
Emax [2]: 30 to 55%
IC50 [2]: < 1 nM

COc1cc2ncc(-c3cc(F)c(OC)c(NS(=O)(=O)c4cnc(C)o4)c3)n2cc1S(=O)(=O)C(C)(C)C [Example 290, N-(5-(6-(tert-butylsulfonyl)-7-methoxyimidazo[1,2-a]pyridin-3-yl)-3-fluoro-2-methoxyphenyl)-2-methyloxazole-5-sulfonamide]
IC50 [1]: > 1000 nM
Emax [2]: < 30%
IC50 [2]: > 20 nM

COc1cc2ncc(-c3cc(F)c(OC)c(NS(=O)(=O)c4csc(C)n4)c3)n2cc1S(=O)(=O)C(C)(C)C [Example 291, N-(5-(6-(tert-butylsulfonyl)-7-methoxyimidazo[1,2-a]pyridin-3-yl)-3-fluoro-2-methoxyphenyl)-2-methylthiazole-4-sulfonamide]
IC50 [1]: < 50 nM
Emax [2]: 55 to 80%
IC50 [2]: < 1 nM

COc1cc2ncc(-c3cc(F)c(OC)c(NS(=O)(=O)c4cc(C)sn4)c3)n2cc1S(=O)(=O)C(C)(C)C [Example 292, N-(5-(6-(tert-butylsulfonyl)-7-methoxyimidazo[1,2-a]pyridin-3-yl)-3-fluoro-2-methoxyphenyl)-5-methylisothiazole-3-sulfonamide]
IC50 [1]: 50 to 250 nM
Emax [2]: 30 to 55%
IC50 [2]: < 1 nM

COc1cc2ncc(-c3cc(F)c(OC)c(NS(=O)(=O)c4coc(C)n4)c3)n2cc1S(=O)(=O)C(C)(C)C [Example 293, N-(5-(6-(tert-butylsulfonyl)-7-methoxyimidazo[1,2-a]pyridin-3-yl)-3-fluoro-2-methoxyphenyl)-2-methyloxazole-4-sulfonamide]
IC50 [1]: < 50 nM
Emax [2]: 30 to 55%
IC50 [2]: < 1 nM

COc1cc2ncc(-c3cccc(NS(=O)(=O)c4cnn(C)c4)c3)n2cc1S(=O)(=O)C(C)(C)C [Example 294, N-(3-(6-(tert-butylsulfonyl)-7-methoxyimidazo[1,2-a]pyridin-3-yl)phenyl)-1-methyl-1H-pyrazole-4-sulfonamide]
IC50 [1]: 50 to 250 nM
Emax [2]: > 80%
IC50 [2]: < 1 nM

CC(=O)COc1cc2ncc(-c3cc(Cl)c(N)nc3F)n2cc1S(=O)(=O)C(C)(C)C [Example 300, 1-((3-(6-amino-5-chloro-2-fluoropyridin-3-yl)-6-(tert-butylsulfonyl)imidazo[1,2-a]pyridin-7-yl)oxy)propan-2-one]
IC50 [1]: 250 to 1000 nM
Emax [2]: > 80%
IC50 [2]: 2.5 to 20 nM
